Source: the supplement of paper PMC5579334
± gives the standard deviation of the averaged measurements.

Key:
[1] = tested on: HSC2 (primary human Schwann cells); assay: drug sensitivity score (DSS, CellTox-Green cytotoxicity, 72 h) (DSS (dimensionless)); higher = more cytotoxic; extreme values may be limits of the assay
How it was run: (§1)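 MPNST cell lines and primary human Schwann cells were grown for 72 h at 37 °C in 384-well plates containing five 10-fold compound dilutions. CellTox-Green, added before seeding at a final 1:1000 dilution, gave fluorescence from DNA released by disrupted cells, and signals were scaled to vehicle and positive-control wells. Curves were fitted with a four-parameter logistic model. Drug sensitivity score and relative IC50 come from these fits, with IC50 censored at the top concentration.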

S1507-2 [2] = assay: as above
How it was run: as §1

HS-PSS [3] = assay: as above
How it was run: as §1

STS26T [4] = assay: as above
How it was run: as §1

ST8814 [5] = assay: as above
How it was run: as §1

[6] = tested on: HSC1 (primary human Schwann cells); assay: as above
How it was run: as §1

[7] = tested on: HSC2 (primary human Schwann cells); assay: drug sensitivity score (DSS, CellTiter-Glo viability, 72 h) (DSS (dimensionless)); higher = more sensitive; extreme values may be limits of the assay
How it was run: (§2)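 For this screen, 384-well plates were preprinted with each compound at five concentrations in 10-fold steps and seeded with MPNST cell lines or primary human Schwann cells at 750–1000 cells per well. Incubation lasted 72 h at 37 °C, 5% CO2, and CellTiter-Glo ATP luminescence, scaled between vehicle and positive-control wells and averaged over duplicates where available, served as viability. Logistic fits with four parameters were applied. Relative IC50 (censored at the top concentration) and drug sensitivity score derive from these fits, and percent inhibition is at the top concentration.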

S1507-2 [8] = assay: as above
How it was run: as §2

HS-PSS [9] = assay: as above
How it was run: as §2

STS26T [10] = assay: as above
How it was run: as §2

ST8814 [11] = assay: as above
How it was run: as §2

HS-Sch-2 [12] = assay: as above
How it was run: as §2

[13] = tested on: HSC1 (primary human Schwann cells); assay: as above
How it was run: as §2

YST-1 [14] = assay: as above
How it was run: as §2

S462 [15] = assay: as above
How it was run: as §2

[16] = tested on: HSC2 (primary human Schwann cells); assay: % inhibition of CellTiter-Glo viability at highest tested concentration (72 h), relative to DMSO and benzethonium chloride controls; higher = more inhibition
How it was run: as §2

S1507-2 [17] = assay: as above
How it was run: as §2

HS-PSS [18] = assay: as above
How it was run: as §2

STS26T [19] = assay: as above
How it was run: as §2

ST8814 [20] = assay: as above
How it was run: as §2

HS-Sch-2 [21] = assay: as above
How it was run: as §2

[22] = tested on: HSC1 (primary human Schwann cells); assay: as above
How it was run: as §2

YST-1 [23] = assay: as above
How it was run: as §2

S462 [24] = assay: as above
How it was run: as §2

Structure (SMILES)	drug sensitivity score [1]	drug sensitivity score (S1507-2 [2])	drug sensitivity score (HS-PSS [3])	drug sensitivity score (STS26T [4])	drug sensitivity score (ST8814 [5])	drug sensitivity score [6]	drug sensitivity score [7]	drug sensitivity score (S1507-2 [8])	drug sensitivity score (HS-PSS [9])	drug sensitivity score (STS26T [10])	drug sensitivity score (ST8814 [11])	drug sensitivity score (HS-Sch-2 [12])	drug sensitivity score [13]	drug sensitivity score (YST-1 [14])	drug sensitivity score (S462 [15])	% inhibition [16]	% inhibition (S1507-2 [17])	% inhibition (HS-PSS [18])	% inhibition (STS26T [19])	% inhibition (ST8814 [20])	% inhibition (HS-Sch-2 [21])	% inhibition [22]	% inhibition (YST-1 [23])	% inhibition (S462 [24])
CC(C)Cn1cnc2c(N)nc3ccccc3c21 [Imiquimod] (max concentration tested 2500 nM)	0	0	0	0	0	0	0	0	0.9	0	0	0.45	0	0	0	6.67%	-4.77 ± 3.7%	14.8%	3.07%	-6.88%	16.9%	-1.61%	4.76%	1.41 ± 6.7%
O=C(Nc1ccncc1)C(=O)c1cn(Cc2ccc(Cl)cc2)c2ccccc12 [Indibulin] (max concentration tested 10000 nM)	7.54	10.8 ± 3.9	0	21.5	12.6	5.82	10.5	15 ± 3.3	2.56	20.1	14.4	10.5	11.2	10.2	16.5 ± 0.54	78.1%	80.5 ± 4.1%	24.1%	93%	74.8%	83.6%	67.6%	66.2%	93.04 ± 0.44%
NC(=O)c1ccc(I)c([N+](=O)[O-])c1 [Iniparib] (max concentration tested 10000 nM)	0	6.29 ± 8.9	0	0.221	0	0	0	0	0	0	0	0	0	0	0	1.97%	9.46 ± 1.8%	-1.31%	7.72%	-1.13%	1.26%	-4.93%	-4.35%	13.9 ± 7.7%
CCc1c2c(nc3ccc(OC(=O)N4CCC(N5CCCCC5)CC4)cc13)-c1cc3c(c(=O)n1C2)COC(=O)[C@]3(O)CC [Irinotecan] (max concentration tested 10000 nM)	5.29	2.16 ± 1.5	3.15	3.22	8.16	6.2	8.79	6.91 ± 0.48	3.76	6.61	9.68	8.31	9.72	12	9.83 ± 0.34	72.5%	75.8 ± 0.88%	58.3%	76.6%	93.9%	81.5%	63.6%	71.2%	98.1 ± 0.28%
C/C(=C\c1csc(C)n1)[C@@H]1C[C@@H]2O[C@]2(C)CCC[C@H](C)[C@H](O)[C@@H](C)C(=O)C(C)(C)[C@@H](O)CC(=O)N1 [Ixabepilone] (max concentration tested 1000 nM)	3.03	3.15 ± 0.92	0	5.61	4.33	4.19	4.2	3.26 ± 0.04	1.51	4.72	3.83	5.18	7.72	3.86	4.444 ± 0.0091	62.1%	62.7 ± 3.3%	39.3%	92.9%	79.1%	91.8%	69.7%	79%	84.3 ± 4%
O=C(Cc1ccc(-c2ccc(OCCN3CCOCC3)cc2)cn1)NCc1ccccc1 [KX2-391] (max concentration tested 10000 nM)	13.8	18.5 ± 2.1	0	32.1	30.1	11.4	22.7	22.6 ± 0.24	15.7	29.4	25.2	28.3	21.4	24	28.72 ± 0.17	86.6%	75.8 ± 1.3%	76.6%	92.4%	83.5%	93.2%	75.7%	80.7%	94.784 ± 0.091%
CS(=O)(=O)CCNCc1ccc(-c2ccc3ncnc(Nc4ccc(OCc5cccc(F)c5)c(Cl)c4)c3c2)o1 [Lapatinib] (max concentration tested 1000 nM)	0	0	0	0	0	0	0	0	0	0.0002	0	0	0	0.63	0	5.46%	2.48 ± 6%	6.86%	10.1%	-2.6%	1.85%	7.8%	22.2%	-5.81 ± 6.8%
Oc1ccc2c(c1)CC[C@H](c1ccccc1)[C@@H]2c1ccc(OCCN2CCCC2)cc1 [Lasofoxifene] (max concentration tested 1000 nM)	0	0	0	0	0	0	0	0	1.43	0	0	0	0	0	0.222 ± 0.31	9.44%	6.44 ± 1.6%	21.2%	4.5%	-2.62%	8.81%	17.1%	-1.77%	10.5 ± 10%
C[C@]12O[C@H](C[C@]1(O)CO)n1c3ccccc3c3c4c(c5c6ccccc6n2c5c31)CNC4=O [Lestaurtinib] (max concentration tested 1000 nM)	0.0333	1.52 ± 2.1	0	0.547	1.63	0.556	13.2	9.04 ± 0.52	5.63	5.07	6.44	7.66	11.2	3.41	11.7 ± 0.16	51.8%	76.7 ± 2.5%	45.7%	54.5%	62.3%	68.4%	54.4%	26.8%	96.6 ± 1.5%
N#Cc1ccc(C(c2ccc(C#N)cc2)n2cncn2)cc1 [Letrozole] (max concentration tested 10000 nM)	0	0	0	0	0	0	0	0	0	0	0	0.34	0	0	0	3.35%	-4.25 ± 4.2%	10.6%	3.15%	-5.31%	14.7%	1.16%	7.25%	-4.84 ± 2.2%
c1ccc([C@H]2CN3CCSC3=N2)cc1 [Levamisole] (max concentration tested 10000 nM)	0	0	0	0	0	0	0	0	0	0	0	0	0	0	0	4.5%	-5.81 ± 3.8%	-6.64%	6.7%	-0.0528%	-7.3%	-1.64%	0.96%	0.12 ± 8.6%
Cc1ccc(F)c(NC(=O)Nc2ccc(-c3cccc4[nH]nc(N)c34)cc2)c1 [Linifanib] (max concentration tested 1000 nM)	0	0	0	0	0	0	0.0016	0.308 ± 0.44	0	0	0	0	0	0	0.159 ± 0.18	11.5%	10 ± 8.1%	9.61%	5.78%	10.9%	1.61%	-2.2%	6.46%	14.7 ± 3.3%
C[C@]1(O)C[C@@H](c2nc(-c3ccc4ccc(-c5ccccc5)nc4c3)c3c(N)nccn32)C1 [Linsitinib] (max concentration tested 10000 nM)	0	0.228 ± 0.32	0	0	0	0	0	5.34 ± 1.7	0	0.527	0	2.13	5.89	11.6	5.33 ± 1.5	11.7%	24.6 ± 0.99%	-2.81%	13%	11.1%	25.6%	27%	82.4%	30.7 ± 0.84%
Nc1nc(OCc2cc(Br)cs2)c2[nH]cnc2n1 [Lomeguatrib] (max concentration tested 10000 nM)	0	0	0	0	0	0	0	0	0.77	0	0	0	0	0	0	-5.93%	-7.24 ± 3.2%	15.1%	-6.97%	-0.939%	-6.3%	-5.66%	-1.6%	-14 ± 0.99%
